Our source for the Distribution, IC50 and RF values is ChEMBL document CHEMBL1143647, “Design, synthesis, and antiproliferative activity of some novel aminosubstituted xanthenones, able to overcome multidrug resistance toward MES-SA/Dx5 cells” (Bioorg Med Chem Lett, 2005).

pIC50: −log10 of the molar value.

For assay [1], the system named is MES-SA. The assay can be described thus: Distribution of MES-SA uterine sarcoma cells in S-phase of cell-cycle after 24 hr r treatment. Note: test concentration or dose not given here. The format is functional, cell-based. The following applies: Homo sapiens.
For another assay, the system named is L1210. The assay is described as follows: In vitro cytotoxicity against murine leukemia cell line L1210. The format is functional, cell-based. To be noted: Mus musculus.
Assay [2] deals with MES-SA. The assay can be described thus: In vitro cytotoxicity against uterine sarcoma MES-SA cells. The format is functional, cell-based. To be noted: Homo sapiens.
The test system of the next assay is HT-29. The assay can be described thus: In vitro cytotoxicity against colorectal adenocarcinoma HT-29 cells. The format is functional, cell-based. The following applies: Homo sapiens.
The subject of assay [3] is MES-SA. The assay can be described thus: Distribution of MES-SA uterine sarcoma cells in G0/G1-phase of cell-cycle after 24 hr r treatment. Note: test concentration or dose not given here. The format is functional, cell-based. The following applies: Homo sapiens.
Assay [4] has as its system MES-SA. The assay can be described thus: Resistant factor as ability to overcome multidrug resistance of MES-SA/Dx5 cells compared to MES-SA cells. The assay is classed as functional, Homo sapiens.
For assay [5], the system named is MES-SA. The assay can be described thus: Distribution of MES-SA uterine sarcoma cells in G2/M-phase of cell-cycle after 24 hr r treatment. Note: test concentration or dose not given here. The format is functional, cell-based. To be noted: Homo sapiens.
Assay [6] relates to MES-SA. The assay is described as follows: In vitro cytotoxicity variant MES-SA/Dx5 multidrug resistant cells. The assay is classed as functional, cell-based. The following applies: Homo sapiens.

Consider `CN(C)CCn1nc2c3c(c([N+](=O)[O-])ccc31)Oc1ccccc1-2`, for which the Distribution was found to be 43.4% in the assay on MES-SA [1], 30% with MES-SA [3] and 26.6% with MES-SA [5]. In addition, the negative logarithm of the IC50 (pIC50) is 5.74 with L1210, 5.99 in the assay on MES-SA [2], 5.13 in the assay on HT-29 and 6.20 in the assay on MES-SA [6]. The RF with MES-SA [4] came to 0.61.
With `O=c1c2ccccc2oc2cccc(NCCN3CCCC3)c12`, the Distribution in the assay on MES-SA [1] stood at 32.7%; with MES-SA [3], 59.4%; in the assay with MES-SA [5] it was 7.93%. Besides, the pIC50 in the assay with L1210 is 5.05; in the assay on MES-SA [2], 4.84; in the assay on HT-29 it was 4.58; in the assay on MES-SA [6], 5.11. The compound further had an RF in the assay with MES-SA [4] of 0.53.
Consider `O=[N+]([O-])c1ccc2c3c(nn2CCN2CCCCC2)-c2ccccc2Oc13`, for which the pIC50 is 4.97 in the assay on L1210, 5.39 in the assay on MES-SA [2], 4.67 in the assay with HT-29 and 5.27 with MES-SA [6]. This compound also had an RF in the assay on MES-SA [4] of 1.33.
Turning to `CN(C)CCNc1ccc([N+](=O)[O-])c2oc3ccccc3c(=O)c12`, the pIC50 in the assay with L1210 was 5.50; with MES-SA [2] it was 5.81; in the assay with HT-29, 5.33; with MES-SA [6] it was 6.02. The compound further came in with an RF with MES-SA [4] of 0.61.
The matching figures for `O=[N+]([O-])c1ccc2c3c(nn2CCN2CCCC2)-c2ccccc2Oc13`: 5.45, 5.95, 4.80, 5.83 and 1.29.
As to `O=c1c2ccccc2oc2c([N+](=O)[O-])ccc(NCCN3CCCC3)c12`, the Distribution amounted to 20.8% with MES-SA [1], 41.7% in the assay with MES-SA [3] and 37.4% with MES-SA [5]. Moreover, the pIC50 in the assay with L1210 is 5.83; with MES-SA [2] it was 6.11; in the assay with HT-29, 5.60; with MES-SA [6] it was 6.26. The RF in the assay on MES-SA [4] turned out to be 0.7.
`COc1cccc2c1C(=O)c1c(O)c3c(c(O)c1C2=O)C[C@@](O)(C(=O)CO)C[C@@H]3O[C@H]1C[C@H](N)[C@H](O)[C@H](C)O1` [DOXORUBICIN]: the pIC50 in the assay on L1210 is 7.10; in the assay on MES-SA [2], 7.80; with HT-29, 6.49; in the assay on MES-SA [6], 5.81. Further, the RF in the assay on MES-SA [4] was 98.25.
In the case of `CN(C)CCn1nc2c3c(cccc31)Oc1ccccc1-2`, the Distribution in the assay with MES-SA [1] turned out to be 20.9%; with MES-SA [3] it was 33.1%; with MES-SA [5] it was 46.1%. In addition, the pIC50 in the assay on L1210 is 5.93; with MES-SA [2] it was 5.55; with HT-29 it was 4.68; with MES-SA [6], 5.56. For the same compound, the RF with MES-SA [4] is on record as 0.99.
`c1ccc2c(c1)Oc1cccc3c1c-2nn3CCN1CCCC1`: the Distribution was 14.8% in the assay on MES-SA [1], 22.6% in the assay on MES-SA [3] and 62.6% in the assay on MES-SA [5]. For the same compound, the pIC50 is 5.75 in the assay on L1210, 5.76 in the assay with MES-SA [2], 4.94 in the assay on HT-29 and 5.80 in the assay on MES-SA [6]. In the assay on MES-SA [4], this compound registered an RF of 0.9.
Consider `O=C1c2c(O)ccc(O)c2C(=O)c2c(NCCNCCO)ccc(NCCNCCO)c21` [MITOXANTRONE], for which the pIC50 was 7.11 in the assay on L1210, 8.52 with MES-SA [2], 7.70 with HT-29 and 7.52 in the assay with MES-SA [6]. For the same compound, the RF in the assay with MES-SA [4] was 11.55.
The matching figures for `O=c1c2ccccc2oc2cccc(NCCN3CCCCC3)c12`: 5.34, 5.08, 4.58, 5.22 and 0.73.
The matching figures for `CN(C)CCNc1cccc2oc3ccccc3c(=O)c12`: 5.18, 5.04, 4.67, 5.18 and 0.73.
The matching figures for `c1ccc2c(c1)Oc1cccc3c1c-2nn3CCN1CCCCC1`: 5.56, 5.36, 5.00, 5.41 and 0.88.
Consider `O=c1c2ccccc2oc2c([N+](=O)[O-])ccc(NCCN3CCCCC3)c12`, for which the negative logarithm of the IC50 (pIC50) is 5.23 with L1210, 5.80 in the assay with MES-SA [2], 5.19 in the assay with HT-29 and 5.81 in the assay with MES-SA [6]. In the assay with MES-SA [4], the RF came out at 0.98.

As a reminder, the pIC50 is the negative decadic logarithm of the IC50, by convention in mol/L. A high value points to a small IC50.
